The source of these data is ChEMBL document CHEMBL5050834, “Cyclic trex1 inhibitors” (2021).

Activity calls are given as the source filed them. The rule behind the calls is not given here.

Test system in one assay: not listed separately
Briefly: Inhibition of TREX1 in human THP1-Dual cells assessed as activation of cGAS-STING pathway measured by ISRE luciferase reporter gene assay. It counts as cell-based.
Conditions: not given
What is called EC50 is the concentration at which the effect is half-maximal. As to `N[C@@H]1C[C@H]2C(=O)N([C@H](CCC(=O)O)C(=O)NCc3ccc(Cl)c(Cl)c3F)CCC(CCc3ccccc3)N2C1` (stereo partly specified), the EC50 is 1000 nM.

On to `N[C@@H]1C[C@H]2C(=O)N([C@H](CCc3nnn[nH]3)C(=O)NCc3ccc(Cl)c(Cl)c3F)CCC(CCc3ccccc3)N2C1` (stereo partly specified), for which the EC50 amounted to 1000 nM.

Test system in a further assay: not listed separately
Briefly: Inhibition of human TREX1 exonuclease activity using labeled DNA oligonucleotide as substrate incubated for 30 mins and measured after 45 mins by fluorescence assay.
Conditions: not given
By IC50 is commonly meant the concentration that inhibits the measured activity by half. Read a low IC50 as greater potency. In turn, `N[C@@H]1C[C@H]2C(=O)N([C@H](CCC(=O)O)C(=O)NCc3ccc(Cl)c(Cl)c3F)CCC(CCc3ccccc3)N2C1` (stereo partly specified) returned an IC50 below 1000 nM.

The compound `N[C@@H]1C[C@H]2C(=O)N([C@H](CCc3nnn[nH]3)C(=O)NCc3ccc(Cl)c(Cl)c3F)CCC(CCc3ccccc3)N2C1` (stereo partly specified) displayed an IC50 below 1000 nM.

As to `N#CC[C@H](C(=O)NCc1ccc(Cl)c(C(F)(F)F)c1)N1CCC(CCc2ccccc2)N2C[C@H](N)C[C@H]2C1=O` (stereo partly specified), the IC50 was below 1000 nM.

As for `COC(=O)CC[C@H](C(=O)NCc1ccc(Cl)c(Cl)c1)N1CCC(COc2ccc(F)cc2)N2C[C@H](N)C[C@H]2C1=O` (mixture of isomers), the IC50 was below 1000 nM.

As for `Cn1c(Cl)ccc(CNC(=O)[C@@H](CCC(=O)O)N2CCC(CCc3ccccc3)N3C[C@H](N)C[C@H]3C2=O)c1=O` (stereo partly specified), the IC50 is below 1000 nM.

Turning to `CC(C)C[C@H](CNS(=O)(=O)c1ccc(Cl)c(Cl)c1)N1CCC(CCc2ccccc2)N2C[C@H](N)C[C@H]2C1=O` (stereo partly specified), the IC50 was below 1000 nM.

As to `CNC(=O)CC[C@H](C(=O)NCc1ccc(Cl)c(Cl)c1)N1CCC(CCc2ccccc2)N2C[C@H](N)C[C@H]2C1=O` (stereo partly specified), the IC50 is below 1000 nM.

The compound `Cc1nnc(CC[C@H](C(=O)NCc2ccc(Cl)c(Cl)c2F)N2CCC(CCc3ccccc3)N3C[C@H](N)C[C@H]3C2=O)[nH]1` (stereo partly specified) returned an IC50 below 1000 nM.

In the case of `N[C@@H]1C[C@H]2C(=O)N([C@@H]3CCCN(S(=O)(=O)c4ccc(Cl)c(Cl)c4)C3)CCC(CCc3ccccc3)N2C1` (stereo partly specified), the IC50 was below 1000 nM.

For `CCOC(=O)CC[C@H](C(=O)NCc1ccc(Cl)c(Cl)c1)N1CCC(CCc2ccccc2)N2C[C@H](NC(=O)OCC)C[C@H]2C1=O` (stereo partly specified), the IC50 result was “in the range around 10000 nM”.

As for `COc1ccc(OCC2CCN([C@H](CCC(=O)O)C(=O)NCc3ccc(Cl)c(Cl)c3)C(=O)[C@@H]3C[C@@H](N)CN23)cc1` (stereo partly specified), the IC50 result is “in the range around 1000 nM”.

As to `N[C@@H]1C[C@H]2C(=O)N([C@H](CCC(=O)O)C(=O)N3CCC[C@H]3c3ccc(Cl)c(Cl)c3)CCC(CCc3ccccc3)N2C1` (stereo partly specified), the half-inhibitory concentration (IC50) is below 1000 nM.

The compound `CC(C)C[C@H](C(=O)NCc1ccc(C(F)(F)F)c(F)c1)N1CCC(CCc2ccccc2)N2C[C@H](N)C[C@H]2C1=O` (stereo partly specified) yielded an IC50 below 1000 nM.

Turning to `N[C@@H]1C[C@H]2C(=O)N([C@H](CCC(=O)NO)C(=O)NCc3ccc(Cl)c(Cl)c3)CCC(CCc3ccccc3)N2C1` (stereo partly specified), the IC50 was below 1000 nM.

On to `N=C(N)NCCC[C@H](C(=O)NCc1ccc(Cl)c(Cl)c1)N1CCC(CCc2ccccc2)N2C[C@H](N)C[C@H]2C1=O` (stereo partly specified), for which the 50% inhibitory concentration (IC50) is below 1000 nM.

In turn, `N[C@@H]1C[C@H]2C(=O)N([C@H](CCC(=O)O)C(=O)N3CCOC[C@H]3c3ccc(Cl)c(Cl)c3)CCC(CCc3ccccc3)N2C1` (stereo partly specified) returned an IC50 below 1000 nM.

`N#CCC[C@H](C(=O)NCc1ccc(Cl)c(Cl)c1)N1CCC(COc2ccc(F)cc2)N2C[C@H](N)C[C@H]2C1=O` (stereo partly specified) returned an IC50 below 1000 nM.

`N[C@@H]1C[C@H]2C(=O)N([C@H](CSc3ccccc3O)C(=O)NCc3ccc(Cl)c(Cl)c3)CCC(CCc3ccccc3)N2C1` (stereo partly specified) yielded an IC50 below 1000 nM.

In the next assay the test system is MB49. Briefly: Antitumor activity against mouse MB49 cells xenografted in female C57BL/6 mouse assessed as reduction in tumor volume at 100 ug, IT(Intratumoral) followed by 10 Gy gamma irradiation. It counts as functional, cell-based. The note with it: dose 100.0 µg.
Turning to `N[C@@H]1C[C@H]2C(=O)N([C@H](CCC(=O)O)C(=O)NCc3ccc(Cl)c(Cl)c3)CCC(CCc3ccccc3)N2C1` (stereo partly specified), the outcome was Active.
